Reference: patent US9452159B2, “6-aminopyridine-3-ol derivatives or pharmaceutically acceptable salts thereof, and pharmaceutical composition containing same as active ingredients for preventing or treating diseases caused by angiogenesis” (Research Cooperation Foundation of Yeungnam University, priority 2011, dated 2016)
Like-named read-outs stand apart in the source and are kept apart here.

Assays:
[1] = system: chorioallantoic membrane (CAM); experiment: Chorioallantoic membrane (CAM) assay, VEGF-derived angiogenesis; assay type: in vivo, chick; settings: for angiogenesis inhibiting effects: VEGF-treated CAM, summary of Table 1, 6a compared with SU4312, batimastat and α-tocopherol
Experimental: To examine angiogenesis inhibiting effects in vivo, CAM assay was performed (Nguyen Metal., Microvascular Res., 47, pp 31-40, 1994). Hen's fertile eggs were incubated at a temperature of 37° C. and in relative humidity 55%, and on the 10th day after the incubation, an air sac site was punched by using a hypodermic needle (Greencross Medical Science Corp, Korea) to form a first hole, and then, a planar site of the fertile egg where a window was to be formed was punched to form a second hole. Air was removed through the first pore of the air sac site to allow the chorioallantoic membrane (CAM) to be separated from the shell of the fertile egg, and this site was cut by using a grinding wheel (Multipro 395JA, Dremel, Mexico) to form a window. […] Through the window, the filter disc was placed on blood vessels, which were then treated with the compounds each dissolved in dimethylsulfoxide (DMSO) and diluted with phosphate buffer solution (PBS) at various concentrations. 3 days after the treatment with the compounds, the CAM site with the filter disc placed thereon was separated, and then washed with a phosphate buffer solution, and an image thereof was obtained by using a stereomicroscope (Stemi SV6 stereomicroscope, Carl Zeiss, Germany) and image-Pro Plus software (Media Cybernetics; Silver Spring, Md., U.S.A.) to count the number of blood vessel branches, and the obtained results were assayed.

A549 lung cancer cells = experiment: Oncogenesis-derived angiogenesis and tumor growth on CAM inoculated with A549 lung cancer cells; assay type: in vivo, chick; settings: A549 cells 1.5×10^6 cell/CAM, various concentrations, five days after inoculation; FIG. 4
Experimental: Hen's fertile eggs were incubated, and on the 9th day, a window was formed in the same manner as in Experimental Example 1, and instead of a disc, A549 lung cancer cells were mixed with matrigel at a ratio of 1:1, and then the cells were treated with Compounds 6a and 6i and inoculated at a concentration of 1.5×10^6 cell/CAM. Five days after the inoculation, the CAM site where tumors developed was separated and washed with a phosphate buffer solution, and then, an image thereof was obtained by using a stereomicroscope (Stemi SV6 stereomicroscope, Carl Zeiss, Germany) and Image-Pro Plus software (Media Cybernetics; Silver Spring, Md., U.S.A.) to count the number of blood vessel branches, and the results were assayed.

HUVEC cells = experiment: VEGF-derived ROS scavenging ability (DCF-DA fluorescence); assay type: cell-based; settings: HUVEC pretreated 3 hours, then VEGF 15 minutes, compared to VEGF, FIG. 5
Experimental: DCF-DA (2′,7′-dichlorofluorescein diacetate) was used to measure a VEGF-derived ROS scavenging ability in HUVEC cells. When ROS exists in cells, DCF-DA is oxidized into fluorescent DCF, thereby emitting green fluorescent light. 1×10^5 concentration of HUVEC was spread onto a 0.2% gelatin coated 8-well plate, and then incubated for 24 hours. The cells were pretreated with Compounds 6a or 6i for 3 hours and then, treated with VEGF for 15 minutes, and then, washed three times with PBS (pH 7.4), and then, 10 μM of DCF-DA was added to EBM-2 medium, which was then placed in dark condition for 30 minutes. Then, the cells were washed three times with PBS, and a degree of intracellular fluorescence was measured by using a fluorescent microscope.

[2] = Gallus gallus, 72 h, VEGF (50 ng/CAM) + 2.0 ng/CAM, 1.0 μM, 3 days after treatment, read-out: Inhibition ratio
[3] = VEGF (50 ng/CAM) + 2.0 ng/CAM, 1.0 μM, 3 days after treatment
[4] = VEGF (50 ng/CAM) + 1.0 μg/CAM, 378 μM, 3 days after treatment
[5] = Gallus gallus, 72 h, VEGF (50 ng/CAM) + 3.0 ng/CAM, 1.0 μM, 3 days after treatment, read-out: Inhibition ratio
[6] = VEGF (50 ng/CAM) + 3.0 ng/CAM, 1.0 μM, 3 days after treatment
[7] = Gallus gallus, 72 h, VEGF (50 ng/CAM) + 3.0 ng/CAM, 1.1 μM, 3 days after treatment, read-out: Inhibition ratio
[8] = VEGF (50 ng/CAM) + 3.0 ng/CAM, 1.1 μM, 3 days after treatment
[9] = Gallus gallus, 72 h, VEGF (50 ng/CAM) + 3.0 ng/CAM, 1.3 μM, 3 days after treatment, read-out: Inhibition ratio
[10] = VEGF (50 ng/CAM) + 3.0 ng/CAM, 1.3 μM, 3 days after treatment
[11] = VEGF (50 ng/CAM) + 3.0 ng/CAM, 0.7 μM, 3 days after treatment
[12] = VEGF (50 ng/CAM) + 100 ng/CAM, 23 μM, 3 days after treatment

## Cc1nc(N2CCCC2)c(C)c(C)c1O [Compound 6m, 2,4,5-trimethyl-6-(pyrrolidin-1-yl)pyridin-3-ol]
[1]; [2]
  inhibition in vivo at 1 µM: 60.5 ± 12.7%
[1]; [3]
  Number of blood vessel branches/main blood vessel: 27.6 ± 4.2^8
[1]
  angiogenesis inhibiting effects: excellent angiogenesis inhibiting effects

## CN(C)c1ccc(/C=C2\C(=O)Nc3ccccc32)cc1 [SU4312, reference compound]
[1]; [4]
  Inhibition ratio: 74.6 ± 12.1^8
  Number of blood vessel branches/main blood vessel: 24 ± 4.6^8

## Cc1nc(NCc2ccccc2)c(C)c(C)c1O [Compound 6f, 6-(benzylamino)-2,4,5-trimethylpyridin-3-ol]
[1]; Gallus gallus, 72 h, VEGF (50 ng/CAM) + 3.0 ng/CAM, 1.2 μM, 3 days after treatment, read-out: Inhibition ratio
  inhibition in vivo at 1.2 µM: 56.7 ± 16.8%
[1]; VEGF (50 ng/CAM) + 3.0 ng/CAM, 1.2 μM, 3 days after treatment
  Number of blood vessel branches/main blood vessel: 25.8 ± 3.2^8

## CCCCCCCCCCCCCCCCNc1nc(C)c(O)c(C)c1C [Compound 6c, 6-(hexadecylamino)-2,4,5-trimethylpyridin-3-ol]
[1]; Gallus gallus, 72 h, VEGF (50 ng/CAM) + 3.0 ng/CAM, 0.8 μM, 3 days after treatment, read-out: Inhibition ratio
  inhibition in vivo at 0.8 µM: 30.1 ± 20%
[1]; VEGF (50 ng/CAM) + 3.0 ng/CAM, 0.8 μM, 3 days after treatment
  Number of blood vessel branches/main blood vessel: 30.8 ± 3.8^8

## Br.Cc1nc(Nc2ccccc2)c(C)c(C)c1O [Compound 6g-HBr, 2,4,5-trimethyl-6-(phenylamino)pyridin-3-ol hydrobromide]
[1]; [5]
  inhibition in vivo at 1 µM: 55 ± 10.6%
[1]; [6]
  Number of blood vessel branches/main blood vessel: 28.6 ± 3.9^8

## Cc1nc(N2CCN(C)CC2)c(C)c(C)c1O [Compound 6n, 2,4,5-trimethyl-6-(4-methylpiperazin-1-yl)pyridin-3-ol]
[1]; [2]
  inhibition in vivo at 1 µM: 24.7 ± 21.3%
[1]; [3]
  Number of blood vessel branches/main blood vessel: 39.8 ± 6.8^8

## Cc1nc(NCCCOc2nc(C)c(O)c(C)c2C)c(C)c(C)c1O [Compound 6d-2, 6-(3-((5-hydroxy-3,4,6-trimethylpyridin-2-yl)amino)propoxy)-2,4,5-trimethylpyridin-3-ol]
[1]; Gallus gallus, 72 h, VEGF (50 ng/CAM) + 3.5 ng/CAM, 1.0 μM, 3 days after treatment, read-out: Inhibition ratio
  inhibition in vivo at 1 µM: 67.3 ± 13.9%
[1]; VEGF (50 ng/CAM) + 3.5 ng/CAM, 1.0 μM, 3 days after treatment
  Number of blood vessel branches/main blood vessel: 26.2 ± 4.4^8
[1]
  angiogenesis inhibiting effects: excellent angiogenesis inhibiting effects

## Cc1nc(N(c2ccccc2)c2ccccc2)c(C)c(C)c1O [Compound 6l, 6-(diphenylamino)-2,4,5-trimethylpyridin-3-ol]
[1]; [5]
  inhibition in vivo at 1 µM: 65.4 ± 14.6%
[1]; [6]
  Number of blood vessel branches/main blood vessel: 26.8 ± 4.6^8
[1]
  angiogenesis inhibiting effects: excellent angiogenesis inhibiting effects

## Cc1nc(Nc2ccccc2C(C)C)c(C)c(C)c1O [Compound 6h, 6-((2-isopropylphenyl)amino)-2,4,5-trimethylpyridin-3-ol]
[1]; [7]
  inhibition in vivo at 1.1 µM: 55.3 ± 20.3%
[1]; [8]
  Number of blood vessel branches/main blood vessel: 28.4 ± 2.7^8

## Cc1nc(Nc2ccc([N+](=O)[O-])cc2)c(C)c(C)c1O [Compound 6i, 2,4,5-trimethyl-6-((4-nitrophenyl)amino)pyridin-3-ol]
[1]; [5]
  inhibition in vivo at 1 µM: 74.9 ± 4.9%
[1]; Gallus gallus, CAM treated with various concentrations, FIG. 3, read-out: IC50 with respect to angiogenesis inhibition
  IC50: 1.8 nM
[1]; [6]
  Number of blood vessel branches/main blood vessel: 26.3 ± 1.6^8
A549 lung cancer cells
  oncogenesis-derived angiogenesis: inhibited
  tumor growth: inhibited
HUVEC cells
  degree of intracellular fluorescence (VEGF-derived ROS): substantial decrease

## Cc1nc(Nc2ccc3c(c2)OCO3)c(C)c(C)c1O [Compound 6k, 6-(benzo[d][1,3]dioxol-5-ylamino)-2,4,5-trimethylpyridin-3-ol]
[1]; [7]
  inhibition in vivo at 1.1 µM: 62.4 ± 11.6%
[1]; [8]
  Number of blood vessel branches/main blood vessel: 25.8 ± 4.3^8
[1]
  angiogenesis inhibiting effects: excellent angiogenesis inhibiting effects

## Cc1nc(N2CCOCC2)c(C)c(C)c1O [Compound 6o, 2,4,5-trimethyl-6-morpholinopyridin-3-ol]
[1]; [2]
  inhibition in vivo at 1 µM: 59 ± 11%
[1]; [3]
  Number of blood vessel branches/main blood vessel: 28.8 ± 3.7^8

## Cc1nc(Nc2ccccc2)c(C)c(C)c1O [Compound 6g, 2,4,5-trimethyl-6-(phenylamino)pyridin-3-ol]
[1]; [9]
  inhibition in vivo at 1.3 µM: 69.4 ± 5.7%
[1]; [10]
  Number of blood vessel branches/main blood vessel: 23.3 ± 1.1^8
[1]
  angiogenesis inhibiting effects: excellent angiogenesis inhibiting effects

## Cc1nc(NCCCO)c(C)c(C)c1O [Compound 6d-1, 6-((3-hydroxypropyl)amino)-2,4,5-trimethylpyridin-3-ol]
[1]; Gallus gallus, 72 h, VEGF (50 ng/CAM) + 3.0 ng/CAM, 1.4 μM, 3 days after treatment, read-out: Inhibition ratio
  inhibition in vivo at 1.4 µM: 46.3 ± 12%
[1]; VEGF (50 ng/CAM) + 3.0 ng/CAM, 1.4 μM, 3 days after treatment
  Number of blood vessel branches/main blood vessel: 27.8 ± 2.3^8

## Cc1c(C)c2c(c(C)c1O)CC[C@@](C)(CCC[C@H](C)CCC[C@H](C)CCCC(C)C)O2 [α-Tocopherol, reference compound]
[1]; [11]
  Inhibition ratio: 45.1 ± 9.3^8
  Number of blood vessel branches/main blood vessel: 32.3 ± 3.5
[1]; [12]
  Inhibition ratio: 64.4 ± 14.2^8
  Number of blood vessel branches/main blood vessel: 24.3 ± 2.7^8

## Cc1nc(NC2CCCCC2)c(C)c(C)c1O [Compound 6e, 6-(cyclohexylamino)-2,4,5-trimethylpyridin-3-ol]
[1]; [9]
  inhibition in vivo at 1.3 µM: 36.8 ± 10.7%
[1]; [10]
  Number of blood vessel branches/main blood vessel: 35.3 ± 4.0^8

## Cc1nc(N(C)c2ccccn2)c(C)c(C)c1O [Compound 6q, 2,4,5-trimethyl-6-(methyl(pyridin-2-yl)amino)pyridin-3-ol]
[1]; Gallus gallus, 72 h, VEGF (50 ng/CAM) + 2.4 ng/CAM, 1.0 μM, 3 days after treatment, read-out: Inhibition ratio
  inhibition in vivo at 1 µM: 42.2 ± 21.7%
[1]; VEGF (50 ng/CAM) + 2.4 ng/CAM, 1.0 μM, 3 days after treatment
  Number of blood vessel branches/main blood vessel: 34.2 ± 6.9^8

## Cc1nc(-n2cccc2)c(C)c(C)c1O [Compound 6p, 2,4,5-trimethyl-6-(1H-pyrrol-1-yl)pyridin-3-ol]
[1]; [2]
  inhibition in vivo at 1 µM: 44 ± 17.2%
[1]; [3]
  Number of blood vessel branches/main blood vessel: 33.6 ± 5.5^8

## Cc1nc(Nc2ccc(Br)cc2)c(C)c(C)c1O [Compound 6j, 6-((4-bromophenyl)amino)-2,4,5-trimethylpyridin-3-ol]
[1]; [5]
  inhibition in vivo at 1 µM: 61.7 ± 7.7%
[1]; [6]
  Number of blood vessel branches/main blood vessel: 30.7 ± 2.6^8

## CNC(=O)[C@H](Cc1ccccc1)NC(=O)[C@H](CC(C)C)[C@H](CSc1cccs1)C(=O)NO [Batimastat, reference compound]
[1]; Gallus gallus, 72 h, VEGF (50 ng/CAM) + 1.0 μg/CAM, 200 μM, 3 days after treatment, read-out: Inhibition ratio
  inhibition in vivo at 200 µM: 78.4 ± 7.4%
[1]; VEGF (50 ng/CAM) + 1.0 μg/CAM, 200 μM, 3 days after treatment
  Number of blood vessel branches/main blood vessel: 19.9 ± 2.87^8

## CCCCCCNc1nc(C)c(O)c(C)c1C [Compound 6b, 6-(hexylamino)-2,4,5-trimethylpyridin-3-ol]
[1]; [9]
  inhibition in vivo at 1.3 µM: 53.7 ± 10.3%
[1]; [10]
  Number of blood vessel branches/main blood vessel: 26.3 ± 2.0^8
